From patent publication US4069316A, “Method for producing antibiotic T-42082 and antibiotic T-42082” (Takeda Chemical Industries, Ltd., priority 1976, dated 1978)

Tested on: Eimeria tenella
Assay: Experimental 3: anticoccidial effect in chicks inoculated with drug-resistant wild strain
Experimental: The following experiment was carried out with a wild strain resistant to the conventional anticoccidial drugs.
The oocysts, predominantly of Eimeria tenella, obtained from a wild strain were used to inoculate chicks at a rate of 10×10^5 sporulated oocysts per bird. […] The battery test procedure was repeated.

## NC(=NN=Cc1ccc(Cl)cc1)NN=Cc1ccc(Cl)cc1 [Lobenidine]
33.0 ppm
  At end of experiment/At start of experiment (No. of birds): 3/3
  Relative Weight gain: 26.4%
  The pathological change of caecum: birds scored +: 0
  The pathological change of caecum: birds scored ++: 0
  The pathological change of caecum: birds scored +++: 0
  The pathological change of caecum: birds scored ++++: 3
  The pathological change of caecum: birds scored -: 0
33.0 ppm, day 4
  No. of blood drops/per bird: 2.3
33.0 ppm, day 5
  No. of blood drops/per bird: 9.3
  No. of deaths: 0
33.0 ppm, day 6
  No. of blood drops/per bird: 9.3
  No. of deaths: 0
33.0 ppm, day 7
  No. of blood drops/per bird: 6.0
  No. of deaths: 0
33.0 ppm, day 8
  No. of deaths: 0
66.0 ppm
  At end of experiment/At start of experiment (No. of birds): 3/3
  Relative Weight gain: 53.4%
  The pathological change of caecum: birds scored +: 0
  The pathological change of caecum: birds scored ++: 0
  The pathological change of caecum: birds scored +++: 0
  The pathological change of caecum: birds scored ++++: 3
  The pathological change of caecum: birds scored -: 0
66.0 ppm, day 4
  No. of blood drops/per bird: 0.6
66.0 ppm, day 5
  No. of blood drops/per bird: 8.0
  No. of deaths: 0
66.0 ppm, day 6
  No. of blood drops/per bird: 10.0
  No. of deaths: 0
66.0 ppm, day 7
  No. of blood drops/per bird: 4.6
  No. of deaths: 0
66.0 ppm, day 8
  No. of deaths: 0
